These results are taken from US20260042764A1, “COMPOSITIONS AND METHODS FOR INHIBITION OF KRAS” (TheRas, Inc., priority 2022, published 2026).

Each structure is given as a SMILES string. Some results are limits rather than exact numbers.

Experiment [1] concerns the target T1, Avi-KRAS G12C (2-169) GTP/RAF1 RBD-3xFLAG (51-131) (Homo sapiens, UniProt P01116, G12C).
T1 construct: Avi-KRAS G12C (2-169)
The experiment can be described thus: Raf1-KRAS G12C-GTP disruption HTRF assay (Biological Example 3). The experiment is classed as binding. The following applies: KRAS G12C, GTP-loaded. In short, it runs like this: (§1)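 Each KRAS-GTP/RAF1 RBD complex at 50 nM, with 75 nM 3xFLAG-RAF1 RBD (51-131)-Avi, in 50 mM Tris pH 7.5, 100 mM NaCl, 5 mM MgCl2, 0.1% BSA, 0.01% Tween 20, 10% DMSO. Compounds titrated from 30 μM, 10-point 3x series; 1 h at room temperature with shaking. HTRF read, activity as percent of DMSO.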
(In general: Time-resolved FRET reads energy transfer from a long-lived donor to a nearby acceptor.)

Experiment [2] has as its system SW620 cells (KRAS G12V). The experiment is described as follows: Cell-based pERK HTRF assay in SW620 cell (Biological Example 4). In short, it runs like this: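 SW620 cells were treated for 4 h with compound in a 9-point half-log series from 1 μM top (0.25% DMSO), then lysed. Phospho-ERK was detected by HTRF with d2 and Eu cryptate antibodies after 4–24 h at room temperature, read at 615 nm emission.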

For experiment [3], the target named is T2, Avi-KRAS G12D (2-169) GTP/RAF1 RBD-3xFLAG (51-131) (Homo sapiens, UniProt P01116, G12D).
T2 construct: Avi-KRAS G12D (2-169)
T2 sequence (P01116 2-169 isoform P01116-2 G12D): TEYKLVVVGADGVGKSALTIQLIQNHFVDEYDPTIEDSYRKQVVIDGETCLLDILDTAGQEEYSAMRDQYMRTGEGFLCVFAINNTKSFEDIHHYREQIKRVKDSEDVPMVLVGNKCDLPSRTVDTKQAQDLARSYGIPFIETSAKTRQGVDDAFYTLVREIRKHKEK
The experiment can be described thus: Raf1-KRAS G12D-GTP disruption HTRF assay (Biological Example 3). The experiment is classed as binding. As to conditions: KRAS G12D, GTP-loaded. In short, it runs like this:
as §1

Experiment [4] addresses T3, Avi-KRAS G12V (2-169) GTP/RAF1 RBD-3xFLAG (51-131) (Homo sapiens, UniProt P01116, G12V).
T3 construct: Avi-KRAS G12V (2-169)
The experiment can be described thus: Raf1-KRAS G12V-GTP disruption HTRF assay (Biological Example 3). The format is binding. As to conditions: KRAS G12V, GTP-loaded. An outline of the steps:
as §1

Experiment [5] concerns GP2d cells (KRAS G12D). The experiment is described as follows: Cell-based pERK HTRF assay in GP2d cell (Biological Example 2). The following applies: GP2d (KRAS G12D) cells. An outline of the steps: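 GP2d (KRAS G12D) cells were plated in DMEM/10% FBS and treated the next day for 60 min with compounds. Dosing used 9-point half-log series starting at 1 μM or 100 nM in 0.25% DMSO. Lysates were read by HTRF pERK (d2/Eu cryptate antibodies) after 4–24 h at room temperature, with excitation at 320 nm and emission at 615 nm.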

For experiment [6], the target named is T4, Avi-KRAS WT (2-169) GTP/RAF1 RBD-3xFLAG (51-131) (Homo sapiens, UniProt P01116).
T4 construct: Avi-KRAS WT (2-169)
T4 sequence (P01116 2-169 isoform P01116-2): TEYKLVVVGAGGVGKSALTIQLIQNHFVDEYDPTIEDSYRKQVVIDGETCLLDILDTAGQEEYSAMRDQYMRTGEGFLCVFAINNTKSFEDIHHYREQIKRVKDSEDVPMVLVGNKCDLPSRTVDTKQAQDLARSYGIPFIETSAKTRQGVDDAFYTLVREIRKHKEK
The experiment can be described thus: Raf1-KRAS WT-GTP disruption HTRF assay (Biological Example 3). The experiment is classed as binding. As to conditions: KRAS WT, GTP-loaded. An outline of the steps: as §1

[7] abbreviates: Homo sapiens, SW-620, SW620 (KRAS G12V) cells.

T3 sequence (P01116 2-169 isoform P01116-2 G12V): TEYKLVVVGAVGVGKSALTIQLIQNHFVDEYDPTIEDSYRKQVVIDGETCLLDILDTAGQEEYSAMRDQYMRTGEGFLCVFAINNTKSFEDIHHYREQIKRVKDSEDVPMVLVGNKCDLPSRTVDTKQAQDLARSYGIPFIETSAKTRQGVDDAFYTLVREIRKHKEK
T1 sequence (P01116 2-169 isoform P01116-2 G12C): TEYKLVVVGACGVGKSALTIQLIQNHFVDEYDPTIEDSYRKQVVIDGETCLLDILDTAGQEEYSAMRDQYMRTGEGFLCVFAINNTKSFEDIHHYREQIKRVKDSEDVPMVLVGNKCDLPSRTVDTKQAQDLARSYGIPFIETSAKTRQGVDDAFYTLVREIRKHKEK

For the molecule `CN(c1nc(OC[C@@]23CCCN2C[C@H](F)C3)nc2c(F)c(-c3ccc(F)c4sc(N)c(C#N)c34)c(C(F)(F)F)cc12)[C@H]1CC(=O)N2CCC[C@H]12` (atropisomer, axis not shown) [Compound 934], the half-maximal inhibitory concentration (IC50) (usually the point on the concentration scale where inhibition reaches its midpoint) is 0.1 to 1 µM in experiment [1]; less than 0.1 µM in experiment [2] (setting [7]); 0.1 to 1 µM in experiment [3]; 0.1 to 1 µM in experiment [4]; less than 0.1 µM in experiment [5] (GP2d); 0.1 to 1 µM in experiment [6].

On to `CN(Cc1cnoc1)c1nc(OC[C@@]23CCCN2C[C@H](F)C3)nc2c(F)c(-c3ccc(F)c4sc(N)c(C#N)c34)c(C(F)(F)F)cc12` (atropisomer, axis not shown) [Compound 935], for which the IC50 in experiment [1] is 0.1 to 1 µM; in experiment [2] (setting [7]) it was less than 0.1 µM; in experiment [3] it was 0.1 to 1 µM; in experiment [4], 0.1 to 1 µM; in experiment [5] (GP2d), less than 0.1 µM; in experiment [6] it was 0.1 to 1 µM.

Turning to `CCN(c1nc(OC[C@@]23CCCN2C[C@H](F)C3)nc2c(F)c(-c3ccc(F)c4sc(N)c(C#N)c34)c(C(F)(F)F)cc12)[C@H]1C[C@H]2CN(C(C)(C)C)C(=O)N2C1` (atropisomer, axis not shown) [Compound 936], the IC50 is 1 to 10 µM in experiment [1]; less than 0.1 µM in experiment [2] (setting [7]); 0.1 to 1 µM in experiment [3]; 1 to 10 µM in experiment [4]; less than 0.1 µM in experiment [5] (GP2d); 1 to 10 µM in experiment [6].

On to `CCN(c1nc(OC[C@@]23CCCN2C[C@H](F)C3)nc2c(F)c(-c3ccc(F)c4sc(N)c(C#N)c34)c(C(F)(F)F)cc12)[C@@H]1C=C[C@H](C(=O)N(C)C)C1` (atropisomer, axis not shown) [Compound 937], for which the 50% inhibitory concentration (IC50) in experiment [1] is 1 to 10 µM; in experiment [2] (setting [7]) it was less than 0.1 µM; in experiment [3], 1 to 10 µM; in experiment [4], 1 to 10 µM; in experiment [5] (GP2d) it was less than 0.1 µM; in experiment [6], 1 to 10 µM.

With `CCN(c1nc(OC[C@@]23CCCN2C[C@H](F)C3)nc2c(F)c(-c3ccc(F)c4sc(N)c(C#N)c34)c(C(F)(F)F)cc12)[C@H]1C=C[C@@H](C(=O)N(C)C)C1` (atropisomer, axis not shown) [Compound 938], the IC50 in experiment [1] was more than 10 µM; in experiment [2] (setting [7]) it was 0.1 to 1 µM; in experiment [3] it was 1 to 10 µM; in experiment [4], more than 10 µM; in experiment [5] (GP2d), less than 0.1 µM; in experiment [6] it was more than 10 µM.

`CCN(c1nc(OC[C@@]23CCCN2C[C@H](F)C3)nc2c(F)c(-c3ccc(F)c4sc(N)c(C#N)c34)c(C(F)(F)F)cc12)[C@H]1CCN(C(=O)c2ncc(Cl)s2)C1` (atropisomer, axis not shown) [Compound 939]: the IC50 in experiment [1] is 1 to 10 µM; in experiment [2] (setting [7]), less than 0.1 µM; in experiment [3], 0.1 to 1 µM; in experiment [4], 1 to 10 µM; in experiment [5] (GP2d) it was less than 0.1 µM; in experiment [6], 1 to 10 µM.

Consider `CCN(c1nc(OC[C@@]23CCCN2C[C@H](F)C3)nc2c(F)c(-c3ccc(F)c4sc(N)c(C#N)c34)c(C(F)(F)F)cc12)[C@H]1C[C@H]2CN(CC(F)F)C(=O)N2C1` (atropisomer, axis not shown) [Compound 940], for which the IC50 is 0.1 to 1 µM in experiment [1]; less than 0.1 µM in experiment [2] (setting [7]); 0.1 to 1 µM in experiment [3]; 0.1 to 1 µM in experiment [4]; less than 0.1 µM in experiment [5] (GP2d); 0.1 to 1 µM in experiment [6].

On to `CCN(c1nc(OC[C@@]23CCCN2C[C@H](F)C3)nc2c(F)c(-c3ccc(F)c4sc(N)c(C#N)c34)c(C(F)(F)F)cc12)[C@@H]1CCN2C(=O)OC[C@H]12` (atropisomer, axis not shown) [Compound 941], for which the IC50 is 1 to 10 µM in experiment [1]; less than 0.1 µM in experiment [2] (setting [7]); 1 to 10 µM in experiment [3]; more than 10 µM in experiment [4]; less than 0.1 µM in experiment [5] (GP2d); 1 to 10 µM in experiment [6].

With `CCN(c1nc(OC[C@@]23CCCN2C[C@H](F)C3)nc2c(F)c(-c3ccc(F)c4sc(N)c(C#N)c34)c(C(F)(F)F)cc12)[C@H]1C[C@H]2CN(CC(F)(F)F)C(=O)N2C1` (atropisomer, axis not shown) [Compound 951], the IC50 in experiment [1] was 0.1 to 1 µM; in experiment [2] (setting [7]), less than 0.1 µM; in experiment [3], 0.1 to 1 µM; in experiment [4], 0.1 to 1 µM; in experiment [5] (GP2d), less than 0.1 µM; in experiment [6], 0.1 to 1 µM.

For `CCN(c1nc(OC[C@@]23CCCN2C[C@H](F)C3)nc2c(F)c(-c3ccc(F)c4sc(N)c(C#N)c34)c(C(F)(F)F)cc12)[C@H]1CCN(C(=O)c2ccc(C#N)s2)C1` (atropisomer, axis not shown) [Compound 952], the half-maximal inhibitory concentration (IC50) in experiment [1] was 0.1 to 1 µM; in experiment [2] (setting [7]) it was less than 0.1 µM; in experiment [3] it was 0.1 to 1 µM; in experiment [4], 0.1 to 1 µM; in experiment [5] (GP2d) it was less than 0.1 µM; in experiment [6], 1 to 10 µM.

As for `CN(Cc1ncoc1C#N)c1nc(OC[C@@]23CCCN2C[C@H](F)C3)nc2c(F)c(-c3ccc(F)c4sc(N)c(C#N)c34)c(C(F)(F)F)cc12` (atropisomer, axis not shown) [Compound 953], the 50% inhibitory concentration (IC50) in experiment [1] was 1 to 10 µM; in experiment [2] (setting [7]), 0.1 to 1 µM; in experiment [3] it was 0.1 to 1 µM; in experiment [4], 1 to 10 µM; in experiment [5] (GP2d), less than 0.1 µM; in experiment [6], 1 to 10 µM.

Consider `CCN(c1nc(OC[C@]23CCCN2C[C@H](F)C3)nc2c(F)c(-c3ccc(F)c4sc(N)c(C#N)c34)c(C(F)(F)F)cc12)[C@H]1CCN(C(=O)OC)C1` (atropisomer, axis not shown) [Compound 954], for which the IC50 in experiment [1] was 0.1 to 1 µM; in experiment [2] (setting [7]), less than 0.1 µM; in experiment [3], not above 0.1 µM; in experiment [4], 0.1 to 1 µM; in experiment [5] (GP2d), less than 0.1 µM; in experiment [6] it was 0.1 to 1 µM.

For `CCN(c1nc(OC[C@]23CCCN2C[C@H](F)C3)nc2c(F)c(-c3ccc(F)c4sc(N)c(C#N)c34)c(C(F)(F)F)cc12)[C@H]1CCN(C(=O)OC)C1` (atropisomer, axis not shown) [Compound 955], the IC50 is more than 10 µM in experiment [1]; 0.1 to 1 µM in experiment [2] (SW620 (KRAS G12V) cells); 1 to 10 µM in experiment [3]; more than 10 µM in experiment [4]; less than 0.1 µM in experiment [5]; more than 10 µM in experiment [6].

Take `CCN(c1nc(OC[C@@]23CCCN2C[C@H](F)C3)nc2c(F)c(-c3ccc(F)c4sc(N)c(C#N)c34)c(C(F)(F)F)cc12)[C@H]1CCN(C(=O)c2ncc(C#N)s2)C1` (atropisomer, axis not shown) [Compound 956]: the IC50 in experiment [1] was 0.1 to 1 µM; in experiment [2] (setting [7]) it was less than 0.1 µM; in experiment [3], 0.1 to 1 µM; in experiment [4] it was 0.1 to 1 µM; in experiment [5] (GP2d) it was less than 0.1 µM; in experiment [6], 1 to 10 µM.

Take `CCN(c1nc(OC[C@@]23CCCN2C[C@H](F)C3)nc2c(F)c(-c3ccc(F)c4sc(N)c(C#N)c34)c(C(F)(F)F)cc12)[C@H]1C[C@@H](C(=O)N(C)C)C1` (atropisomer, axis not shown) [Compound 957]: the IC50 in experiment [1] was 1 to 10 µM; in experiment [2] (SW620 (KRAS G12V) cells) it was less than 0.1 µM; in experiment [3], 0.1 to 1 µM; in experiment [4], 1 to 10 µM; in experiment [5], less than 0.1 µM; in experiment [6] it was 1 to 10 µM.

As to `CCN(c1nc(OC[C@@]23CCCN2C[C@H](F)C3)nc2c(F)c(-c3ccc(F)c4sc(N)c(C#N)c34)c(C(F)(F)F)cc12)[C@H]1C[C@H]2CN(C3COC3)C(=O)N2C1` (atropisomer, axis not shown) [Compound 958], the IC50 was 0.1 to 1 µM in experiment [1]; less than 0.1 µM in experiment [2] (setting [7]); 0.1 to 1 µM in experiment [3]; 0.1 to 1 µM in experiment [4]; less than 0.1 µM in experiment [5] (GP2d); 0.1 to 1 µM in experiment [6].

For the molecule `CN(CC1COC1)c1nc(OC[C@@]23CCCN2C[C@H](F)C3)nc2c(F)c(-c3ccc(F)c4sc(N)c(C#N)c34)c(C(F)(F)F)cc12` (atropisomer, axis not shown) [Compound 963], the IC50 in experiment [1] is more than 10 µM; in experiment [2] (setting [7]), more than 1 µM; in experiment [3], 1 to 10 µM; in experiment [4], more than 10 µM; in experiment [5] (GP2d), more than 1 µM; in experiment [6], 1 to 10 µM.

Consider `CCN(c1nc(OC[C@@]23CCCN2C[C@H](F)C3)nc2c(F)c(-c3ccc(F)c4sc(N)c(C#N)c34)c(C(F)(F)F)cc12)[C@H]1CCCOC1` (atropisomer, axis not shown) [Compound 965], for which the concentration for half-maximal inhibition (IC50) is 0.1 to 1 µM in experiment [1]; less than 0.1 µM in experiment [2] (setting [7]); 0.1 to 1 µM in experiment [3]; 0.1 to 1 µM in experiment [4]; less than 0.1 µM in experiment [5] (GP2d); 0.1 to 1 µM in experiment [6].
